# Results published in patent publication US8809343B2, “Pyrimidine derivative, preparation method and use thereof” (Fudan University, priority 2008, dated 2014).
# Like-named read-outs stand apart in the source and are kept apart here.
# Legend:
# [1] = Cell toxicity in uninfected MT-4 cells (MTT method); assay type: cell-based; conditions: human
# Procedure: (§1) Anti-virus activity of cells in vitro was determined by Rega Institute for Medical of […] Katholleke University, consisting mainly: inhibitory activity towards HIV-infected MT-4 cells and cell toxicity. The method is described below: exert the compound on the HIV-infected ME-4 cells, and determine the protection of the drug on the cell lesions induced by HIV at varied HIV-infection intervals, calculate the half effective concentration IC50, the required concentration that protect 50% of cells from cell lesions induced by HIV. Toxicity determination is carried out in parallel with anti-HIV activity experiments, also in the cultured MT-4 cells, determine the CC50, the concentration that leads 50% of uninfected cells to cell lesions, and calculate the selectivity index SI=CC50/IC50 with the MTT method.
# (§2) The detailed operation is as follows: the compound is dissolved with DMSO or water and diluted with phosphate buffer saline, 3×10^5 MT-4 cells are cultured with 100 μL various concentrations of compounds for 1 h, then 100 μL suitable virus dilution is added to the compound, and the cells are cultured at 37° C. for 1 h. After being washed for 3 times, the cells are suspended again in the culture media containing or not compounds individually. Subsequently, the cells are transferred to the atmosphere containing 5% CO2 and cultured for 7 days at 37° C., and culture media containing or not compounds are used to replace or supplement the culture solution on the third day after infection. Kinds of culture conditions should be duplicated. The cell lesions caused by virus are monitored with reverse light microscopy everyday. Typically, the virus dilution applied in the present experiments generally cause cell lesion on the fifth day after infection. […] It should be emphasized that, when the compound is poorly water-soluble and can only be dissolved in DMSO, the ratio of DMSO to water is generally below 10% (the final concentration of DMSO in MT-4 cell culture media is smaller than 2%). Because DMSO can influence the anti-virus activity of the tested compounds, blank tests on the solution containing the same concentration of DMSO should be conducted in parallel. Additionally, the final concentration of DMSO is far below the concentration required to influence the replication of HIV-1 in T cells.
# HIV-1 IIIB strain = test: Anti-HIV activity: protection of HIV-infected MT-4 cells from virus-induced cell lesions; assay type: cell-based; conditions: for EC50: Human immunodeficiency virus 1, IIIB
# Procedure: as §1
# (§3) Anti-HIV activity of various compounds is monitored by the inhibitory efficiency of drugs on the cell lesions induced by HIV. Carry out cell culture with MT-4 cells. The adopted virus strains are HIV-1 IIIB strain and drug-resistant viral strain of […].
# as §2
# HIV-1 RT = target: T1, HIV-1 RT (Human immunodeficiency virus type 1 group M subtype B, UniProt P03366); test: In vitro anti HIV-1 reverse transcriptase screening (Biotin-dUTP, OD450); assay type: biochemical
# T1 construct: Screening for in vitro activity of anti HIV-1 reverse transcriptase (HIV-1 RT); made in house
# [2] = tested on: drug-resistant viral strain of L103N+Y181C; test: Anti-HIV activity in MT-4 cells, drug-resistant viral strain; assay type: cell-based, HIV-1
# Procedure: as §1, §3, §2
# [3] = Human immunodeficiency virus 1, MT4, read-out: EC50 103N + 181C, MT-4 cells, Table 1
# [4] = HIV-1 IIIB, MT-4 cells, Table 1
# [5] = MT4, read-out: EC50 HIV-1(IIIB)
# [6] = Human immunodeficiency virus 1, MT4, read-out: EC50 103N + 181C, MT-4 cells, Table 2
SMILES,"CC50 at 7 days ([1]; uninfected MT-4 cells, Table 2) [nM]","EC50 (HIV-1 IIIB strain; MT4, read-out: EC50 WT(IIIB)) [nM]","SI (Selectivity index, the ratio of CC50/IC50) (HIV-1 IIIB strain; WT(IIIB), Table 2)",IC50 (HIV-1 RT) [nM],"EC50 [2, 3] [nM]","SI (Selectivity index, the ratio of CC50/IC50) (HIV-1 IIIB strain; [4])","EC50 [2, 6] [nM]",further results
COc1cc2cc(C#N)ccc2cc1Oc1ccnc(Nc2ccc(C#N)cc2)n1 [Compound 21],142000,0.9,>158228,1320,,,,
COc1cc(Oc2cccc3cccnc23)nc(Nc2ccc(C#N)cc2)n1 [Compound 4],,,,,≥ 42200,3299,,"CC50 at 7 days ([1]; uninfected MT-4 cells, Table 1): 42200 nM; EC50 (HIV-1 IIIB strain; [5]): 12.8 nM"
N#Cc1ccc(Nc2nccc(Oc3ccc4cc(C#N)ccc4c3Cl)n2)cc1 [Compound 23],86300,1.8,47964,,,,700,
COc1cc2cc(C#N)ccc2c(Cl)c1Oc1ccnc(Nc2ccc(C#N)cc2)n1 [Compound 24],15400,0.6,≧25701,,,,150,
N#Cc1ccc(Nc2nc(Cl)cc(Oc3cccc4cccnc34)n2)cc1 [Compound 2],,,,,≥ 20100,1031,,"CC50 at 7 days ([1]; uninfected MT-4 cells, Table 1): 20100 nM; EC50 (HIV-1 IIIB strain; [5]): 19.5 nM"
"O=C1Nc2ccc(Cl)cc2[C@@](C#CC2CC2)(C(F)(F)F)O1 [EFV, efavirenz, reference compound]",,,>1434,,560000,>1434,560,"CC50 at 7 days ([1]; Table 1): 4300 nM; CC50 at 7 days ([1]; Table 3): > 6340 nM; SI (Selectivity index, the ratio of CC50/IC50) (HIV-1 IIIB strain; HIV-1 IIIB, MT-4 cells, Table 3): >2174; EC50 (HIV-1 IIIB strain; MT4, MT-4 cells, Table 1, read-out: EC50 HIV-1(IIIB)): 3 nM; EC50 (HIV-1 IIIB strain; MT4, MT-4 cells, Table 2, read-out: EC50 WT(IIIB)): 3 nM"
COc1cc2cc(C#N)ccc2c(OC)c1Oc1ccnc(Nc2ccc(C#N)cc2)n1 [Compound 22],20000,0.8,≧25000,94.5,,,160,
COc1c(Oc2ccnc(Nc3ccc(C#N)cc3)n2)ccc2cc(C#N)ccc12 [Compound 20],161000,1.2,≧134032,2290,,,380,
